Results reported in patent US10624871B2, “Bismuth(III) compounds and methods thereof” (priority 2016, dated 2020).

What was measured:
NDM-1 [1] = molecular target: T1, NDM-1 (Klebsiella pneumoniae, UniProt C7C422); test: Hydrolysis rates of meropenem by native NDM-1 and Bi-bound NDM-1; type: biochemical; parameters: unit not given here; conditions: MER hydrolysis by Bi-bound NDM-1
E. coli (NDM-1+) = test: Microdilution MIC and MBC assay, checkerboard FICI; type: cell-based; conditions: Bi(III) compound at 32 μg mL^−1, E. coli (NDM-1+)
E. coli cells (NDM+) = test: Resistance study, mutation frequency and MPC; type: cell-based
Description: Given the very notion of MIC, all susceptible bacterial cells will be suppressed or killed by a dose above it. However, bacterial population is often large; an infection will likely contain first-step mutants with lowed susceptibility. Thus, the dose of compounds at MIC will adversely amplify the population of those less-susceptible mutants.^26 Thus mutant prevention concentration (MPC), defined as a compound concentration that suppresses the growth of first-step resistant mutant in large quantity of susceptible bacterial population, together with mutant prevention index (MPI=MPC/MIC), is introduced to estimate the mutant prevention ability of exemplary compound combination.
For a typical test, E. coli cells (NDM^+) at 1˜2×10^10 CFU were spread onto LB agar containing combinations of MER and CBS at identical concentrations. All the plates were incubated at 37° C. Upon incubation for 48 hrs, up to 4 colonies were picked and re-cultured from any plates with observable colonies, followed by the measurement of their MIC values. Any MICs of MER that were higher than the original values (16 μg mL^−1) were determined as mutant colony. The concentration that restricted the growth of mutant colonies was determined as MPC.

NDM-1 [2] = molecular target: T1, NDM-1; test: Zn(II) displacement by Bi(III) using ICP-MS; type: binding; conditions: Zn2-NDM-1 20 μM incubated with CBS, 25° C., 5 hrs
Procedure: To monitor the replacement of Zn(II) by Bi(III), inductively-coupled plasma mass spectrometry (ICP-MS) was employed to accurately quantify ^209Bi and ^66Zn contents in various purified NDM-1 samples. Purified Zn2-NDM-1 was prepared as described previously and was dissolved in trace-metal-free ICP-MS buffer containing 50 mM HEPES, pH 7.0 through cycles of buffer washing using an Amicon Ultra-15 Centrifugal Filter Devices with 3 kDa cut-off. Zn2-NDM-1 (20 μM) was incubated with various concentrations of CBS at 25° C. for 5 hrs with mild shaking. The samples were subsequently dialyzed in ICP-MS buffer to remove unbound-metal ions and were acidified with 10% (v/v) nitric acid for 1 h with gentle heating for releasing the bound metal ions from the protein for ICP analysis. The samples were then mixed with 115In as an internal standard to reach a final concentration of 10 ppb in 1% HNO3. After calibration with the isotope standards ^209Bi, ^66Zn and ^34S from Sigma, the samples were subsequently injected into a quadrupole-based inductively coupled plasma mass spectrometer (Agilent 7500a, Agilent Technologies, CA, USA). ^209Bi, ^66Zn and ^34S isotopes abundances were determined simultaneously by integration of peak areas using the build-in software from the instrument so that ^34S abundance serves as a way for quantifying protein concentration in each sample.

T1 sequence (C7C422 whole entry, looked up): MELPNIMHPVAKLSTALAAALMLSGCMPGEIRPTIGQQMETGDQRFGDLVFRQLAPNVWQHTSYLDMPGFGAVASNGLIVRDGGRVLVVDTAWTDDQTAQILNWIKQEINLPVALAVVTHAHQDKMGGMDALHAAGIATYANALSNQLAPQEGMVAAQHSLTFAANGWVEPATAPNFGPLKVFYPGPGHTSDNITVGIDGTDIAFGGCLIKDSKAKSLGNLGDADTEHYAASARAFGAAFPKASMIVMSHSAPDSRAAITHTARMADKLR

SMILES: O=C([O-])CC([O-])(CC(=O)[O-])C(=O)[O-].O=C([O-])CC([O-])(CC(=O)[O-])C(=O)[O-].[Bi+3].[Bi+3].[K+] [Complex 10, colloidal bismuth subcitrate]
- Vmax (NDM-1 [1]): 0.26 ± 0.01
- MBC of MER with Bi(III) compound (E. coli (NDM-1+)): 4 µg/mL
- MIC of MER with Bi(III) compound (E. coli (NDM-1+)): 2 µg/mL
- mutation frequency (E. coli cells (NDM+); MER with CBS at 32, MIC multiple 0.5): >5.22 × 10^−8
- mutation frequency (E. coli cells (NDM+); MER with CBS at 32, MIC multiple 1): 4.10 × 10^−8
- mutation frequency (E. coli cells (NDM+); MER with CBS at 32, MIC multiple 2): 3.28 × 10^−9
- mutation frequency (E. coli cells (NDM+); MER with CBS at 64, MIC multiple 0.5): 1.23 × 10^−8
- mutation frequency (E. coli cells (NDM+); MER with CBS at 64, MIC multiple 1): 1.15 × 10^−9
- mutation frequency (E. coli cells (NDM+); MER with CBS at 128, MIC multiple 0.5): 9.84 × 10^−10
- mutation frequency (E. coli cells (NDM+); MER with CBS at 256, MIC multiple 0.5): 1.31 × 10^−9
- Bi(III) bound to NDM-1 (NDM-1 [2]): 0.96 equivalent
- Zn(II) replaced from NDM-1 (NDM-1 [2]): 2.13 molar equivalents
